Results: patent US10155754B2, “Substituted 2-imino-1,3-thiazolidin-4-ones as N-arachidonoylethanolamine cellular uptake inhibitors” (UNIVERSITAT BERN, priority 2014, dated 2018)

How the values were obtained:
[1] = system: AEA cellular uptake (U937 cells); assay: [3H]-AEA cellular uptake inhibition in U937 cells; type: cell-based; details: Homo sapiens, U-937, U937 cells, final 100 nM AEA with 0.5 nM [3H]-AEA, 15 min at 37° C.; read-out: AEA uptake IC50
In short: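 U937 cells (0.5×10^6 per sample) pre-incubated with compound (100 pM–100 μM, triplicates) for 15 min at 37 °C, then given 100 nM AEA including 0.5 nM [3H]-AEA for 15 min. Filtration, washing and scintillation counting of cell-associated radioactivity; IC50 by four-parameter nonlinear regression.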

[2] = biological target: T1, FAAH (Homo sapiens, UniProt O00519); assay: FAAH activity: hydrolysis of [3H]-AEA in U937 cell homogenates; type: biochemical; details: [3H]-AEA hydrolysis, final 100 nM AEA, read-out: FAAH inhibition IC50
T1 construct: endogenous in cells; host or cells: U937 cell homogenate
T1 sequence (O00519 1-579): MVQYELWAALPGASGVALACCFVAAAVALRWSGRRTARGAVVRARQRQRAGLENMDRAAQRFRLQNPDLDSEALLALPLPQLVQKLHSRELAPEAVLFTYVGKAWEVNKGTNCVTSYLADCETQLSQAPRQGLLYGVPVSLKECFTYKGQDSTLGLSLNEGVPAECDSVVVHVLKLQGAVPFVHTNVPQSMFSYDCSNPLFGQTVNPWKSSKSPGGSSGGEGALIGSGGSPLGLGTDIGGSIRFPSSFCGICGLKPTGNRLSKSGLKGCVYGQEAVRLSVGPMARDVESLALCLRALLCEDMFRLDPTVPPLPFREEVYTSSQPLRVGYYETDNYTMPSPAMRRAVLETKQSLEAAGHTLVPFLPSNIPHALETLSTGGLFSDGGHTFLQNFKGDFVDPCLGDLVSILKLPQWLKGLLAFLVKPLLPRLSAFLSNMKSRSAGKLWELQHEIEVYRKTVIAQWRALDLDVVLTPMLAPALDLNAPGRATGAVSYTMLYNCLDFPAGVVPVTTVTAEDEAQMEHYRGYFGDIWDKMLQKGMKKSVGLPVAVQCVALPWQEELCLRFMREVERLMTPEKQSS
Method: Hydrolysis of [^3H]-AEA by FAAH was determined as previously described in cell homogenates of U937 cells (0.18 mg protein) (Omeir et al., 1999, Biochem Biophys Res Commun, 264, 316-20; Mor et al., 2004, J Med Chem, 47, 4998-5008). Protein amounts of cell homogenates corresponded to 0.5×10^6 cells (U937), to assure best possible comparability of IC50 values as used for the AEA cellular uptake assays. URB597 was used as positive control. Protein quantification was performed using a BCA assay (Thermo Scientific). Enzyme activity was assessed by addition of vehicle or compounds in 10 μL DMSO to 490 μL homogenate in 10 mM Tris HCl, 1 mM EDTA, 0.1% (w/v) BSA fatty acid free, pH=8 and incubation for 15 min at 37° C. After, a mixture of AEA plus [ethanolamine-1-^3H]-AEA (0.5 nM) at final 100 nM was added to the homogenates and incubated for 15 min at 37° C. The reaction was stopped by addition of 1 mL ice-cold CHCl3:MeOH (1:1) followed by vigorous vortexing. Phase separation was achieved by centrifugation at 10'000×g at 4° C. for 10 min. Radioactivity of the separated aqueous phase (upper phase) containing [^3H-ethanolamine] or [^3H-glycerol] was measured by liquid scintillation counting on a Tri-Carb 2100 TR liquid scintillation analyzer after addition of 3.5 mL Ultima Gold scintillation cocktail (PerkinElmer Life Sciences). Results are expressed as hydrolysis of tritium substrate in percent of vehicle treated control. IC50 values were calculated by GraphPad®. Data are reported as means of n=3 independent experiments performed in triplicates.

IC50 [1] [nM]	IC50 [2] [nM]	SMILES
291	> 100000	O=C1/C(=C/c2ccc3ncsc3c2)S/C(=N\c2ccccc2)N1c1ccccc1 [compound 32, (2Z,5Z)-5-((benzo[d]thiazol-6-yl)methylene)-3-phenyl-2-(phenylimino)thiazolidin-4-one]
176	1510	Cc1ccc(N2C(=O)/C(=C/c3ccc4c(c3)OCCO4)S/C2=N\Cc2ccc(F)cc2)cc1 [24_P_A, (2Z,5Z)-2-(4-fluorobenzylimino)-5-((2,3-dihydrobenzo[b][1,4]dioxin-6-yl)methylene)-3-p-tolylthiazolidin-4-one]
164	> 100000	COc1ccc(C/N=C2\S/C(=C\c3ccc4c(c3)OCCO4)C(=O)N2c2ccc(C)cc2)cc1 [24_Q_A, (2Z,5Z)-2-(4-methoxybenzylimino)-5-((2,3-dihydrobenzo[b][1,4]dioxin-6-yl)methylene)-3-p-tolylthiazolidin-4-one]
386	> 100000	Cc1ccc(N2C(=O)/C(=C/c3ccc(CO)cc3)S/C2=N\c2ccc(F)cc2)cc1 [22_B_A, (2Z,5Z)-5-(4-(hydroxymethyl)benzylidene)-2-(4-fluorophenylimino)-3-p-tolylthiazolidin-4-one]
–	> 100000	COc1ccc(N2C(=O)/C(=C/c3ccc4c(c3)OCCO4)S/C2=N\Cc2ccccc2)cc1 [24_C_F, (2Z,5Z)-2-(benzylimino)-5-((2,3-dihydrobenzo[b][1,4]dioxin-7-yl)methylene)-3-(4-methoxyphenyl)thiazolidin-4-one]
170	1590	O=C1/C(=C/c2ccc3c(c2)OCCO3)S/C(=N\Cc2ccccc2)N1c1ccccc1 [24_C_N, (2Z,5Z)-2-(benzylimino)-5-((2,3-dihydrobenzo[b][1,4]dioxin-6-yl)methylene)-3-phenylthiazolidin-4-one]
262	> 100000	O=C1/C(=C/c2ccc3[nH]ccc3c2)S/C(=N\Cc2ccccc2Cl)N1c1ccccc1 [03_T_N, (2Z,5Z)-5-((1H-indol-5-yl)methylene)-2-(2-chlorobenzylimino)-3-phenylthiazolidin-4-one]
141	> 100000	O=C1/C(=C/c2ccc3c(c2)OCCO3)S/C(=N\c2ccc(F)cc2)N1C1CCCCC1 [24_B_I, (2Z,5Z)-2-(4-fluorophenylimino)-3-cyclohexyl-5-((2,3-dihydrobenzo[b][1,4]dioxin-6-yl)methylene)thiazolidin-4-one]
87	170	O=C1/C(=C/c2ccc3c(c2)OCCO3)S/C(=N\Cc2ccc(F)cc2)N1C1CCCCC1 [24_P_I, (2Z,5Z)-2-(4-fluorobenzylimino)-3-cyclohexyl-5-((2,3-dihydrobenzo[b][1,4]dioxin-6-yl)methylene)thiazolidin-4-one]
194	> 100000	O=C1/C(=C/c2ccc3[nH]cnc3c2)S/C(=N\c2ccccc2)N1c1ccccc1 [compound 04, (2Z,5Z)-5-((1H-benzo[d]imidazol-5-yl)methylene)-3-phenyl-2-(phenylimino)thiazolidin-4-one]
172	> 100000	CC(C)CN1C(=O)/C(=C/c2ccc3c(c2)OCCO3)S/C1=N\c1ccccc1 [24_N_X, (2Z,5Z)-5-((2,3-dihydrobenzo[b][1,4]dioxin-6-yl)methylene)-3-isobutyl-2-(phenylimino)thiazolidin-4-one]
164	> 100000	COc1ccc(/N=C2\S/C(=C\c3ccc4[nH]cnc4c3)C(=O)N2c2ccccc2)cc1 [04_F_N, (2Z,5Z)-5-((1H-benzo[d]imidazol-5-yl)methylene)-2-(4-methoxyphenylimino)-3-phenylthiazolidin-4-one]
286	> 100000	Cc1ccc(/N=C2\S/C(=C\c3ccc4c(c3)OCCO4)C(=O)N2c2ccc(C)cc2)cc1 [24_A_A, (2Z,5Z)-2-(p-tolylimino)-5-((2,3-dihydrobenzo[b][1,4]dioxin-6-yl)methylene)-3-p-tolylthiazolidin-4-one]
530	912	O=C1/C(=C/c2ccc3c(c2)OCCO3)S/C(=N\Cc2ccc(F)cc2)N1c1ccccc1 [24_P_N, (2Z,5Z)-2-(4-fluorobenzylimino)-5-((2,3-dihydrobenzo[b][1,4]dioxin-6-yl)methylene)-3-phenylthiazolidin-4-one]
135	> 100000	COc1ccc(/N=C2\S/C(=C\c3ccc(CO)cc3)C(=O)N2c2ccccc2)cc1 [22_F_N, (2Z,5Z)-5-(4-(hydroxymethyl)benzylidene)-2-(4-methoxyphenylimino)-3-phenylthiazolidin-4-one]
351	> 100000	Cc1ccc(/N=C2\S/C(=C\c3ccc4c(cnn4C)c3)C(=O)N2CC(C)C)cc1 [28_A_X, (2Z,5Z)-2-(p-tolylimino)-3-isobutyl-5-((1-methyl-1H-indazol-5-yl)methylene)thiazolidin-4-one]
939	> 100000	COc1ccc(/N=C2\S/C(=C\c3ccc4c(c3)OCCO4)C(=O)N2c2ccccc2)cc1 [24_F_N, (2Z,5Z)-2-(4-methoxyphenylimino)-5-((2,3-dihydrobenzo[b][1,4]dioxin-6-yl)methylene)-3-phenylthiazolidin-4-one]
389	> 100000	Cc1ccc(/N=C2\S/C(=C\c3ccc4c(cnn4C)c3)C(=O)N2C2CCCCC2)cc1 [28_A_I, (2Z,5Z)-2-(p-tolylimino)-3-cyclohexyl-5-((1-methyl-1H-indazol-5-yl)methylene)thiazolidin-4-one]
484	> 10000	COc1ccc(N2C(=O)/C(=C/c3ccc4[nH]cnc4c3)S/C2=N\Cc2ccccc2)cc1 [04_C_F, (2Z,5Z)-5-((1H-benzo[d]imidazol-5-yl)methylene)-2-(benzylimino)-3-(4-methoxyphenyl)thiazolidin-4-one]
373	437	COc1ccc(C/N=C2\S/C(=C\c3ccc4c(c3)OCCO4)C(=O)N2c2ccccc2)cc1 [24_Q_N, (2Z,5Z)-2-(4-methoxybenzylimino)-5-((2,3-dihydrobenzo[b][1,4]dioxin-7-yl)methylene)-3-phenylthiazolidin-4-one]
–	> 100000	O=C1/C(=C/c2ccc3c(c2)OCCO3)S/C(=N\Cc2ccccc2)N1c1ccc(F)cc1 [24_C_B, (2Z,5Z)-2-(benzylimino)-3-(4-fluorophenyl)-5-((2,3-dihydrobenzo[b][1,4]dioxin-7-yl)methylene)thiazolidin-4-one]
107	> 100000	Cc1ccc(/N=C2\S/C(=C\c3ccc4[nH]cnc4c3)C(=O)N2c2ccccc2)cc1 [04_A_N, (2Z,5Z)-5-((1H-benzo[d]imidazol-5-yl)methylene)-2-(p-tolylimino)-3-phenylthiazolidin-4-one]
462	> 100000	O=C1/C(=C/c2ccc3c(c2)OCCO3)S/C(=N\c2ccccc2)N1C1CCCCC1 [24_N_I, (2Z,5Z)-3-cyclohexyl-5-((2,3-dihydrobenzo[b][1,4]dioxin-6-yl)methylene)-2-(phenylimino)thiazolidin-4-one]
327	> 100000	Cc1ccc(/N=C2\S/C(=C\c3ccc4ncsc4c3)C(=O)N2CC(C)C)cc1 [32_A_X, (2Z,5Z)-2-(p-tolylimino)-5-((benzo[d]thiazol-6-yl)methylene)-3-isobutylthiazolidin-4-one]
–	> 100000	O=C1/C(=C/c2ccc3c(c2)OCCO3)S/C(=N\Cc2ccccc2)N1Cc1ccccc1 [24_C_C, (2Z,5Z)-3-benzyl-2-(benzylimino)-5-((2,3-dihydrobenzo[b][1,4]dioxin-7-yl)methylene)thiazolidin-4-one]
–	> 100000	O=C1/C(=C/c2ccc3c(c2)OCCO3)S/C(=N\c2ccc(F)cc2)N1C1CCCCC1 [22_B_I]
